#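 Grown in 96-well plates, cells were treated for 48 hours with each compound at five concentrations. Insufficient inhibition: endpoint recorded as highest concentration tested. Abbreviation: GI50, concentration required for 50% inhibition of growth. TGI is the concentration that stops growth completely.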
# Assays:
# Test in all cases: NCI tumour cell line growth inhibition, 48 h
# HT29 colon = system: HT29 colon
# KM12 colon = system: KM12 colon
# NCI-H23 lung = system: NCI-H23 lung
# SR leukemia = system: SR leukemia
# LOX IMVI melanoma = system: LOX IMVI melanoma
# HOP-62 NSCLC = system: HOP-62 NSCLC
# NCI-H226 lung = system: NCI-H226 lung
# K-562 leukemia = system: K-562 leukemia
# CCRF-CEM leukemia = system: CCRF-CEM leukemia
# IGROV1 ovarian = system: IGROV1 ovarian
SMILES,TGI (HT29 colon) [µM],TGI (KM12 colon) [µM],TGI (NCI-H23 lung) [µM],TGI (SR leukemia) [µM],TGI (LOX IMVI melanoma) [µM],TGI (HOP-62 NSCLC) [µM],TGI (NCI-H226 lung) [µM],TGI (K-562 leukemia) [µM],TGI (CCRF-CEM leukemia) [µM],TGI (IGROV1 ovarian) [µM],GI50 (HT29 colon) [µM],GI50 (KM12 colon) [µM],GI50 (NCI-H23 lung) [µM],GI50 (SR leukemia) [µM],GI50 (LOX IMVI melanoma) [µM],GI50 (HOP-62 NSCLC) [µM],GI50 (NCI-H226 lung) [µM],GI50 (K-562 leukemia) [µM],GI50 (CCRF-CEM leukemia) [µM],GI50 (IGROV1 ovarian) [µM]
C=C1C(=O)OC2CC(C)C(/C=C/C(C)=O)=CCC12 (centres undefined),> 100,> 100,> 100,> 100,> 100,> 100,> 100,> 100,> 100,> 100,–,–,–,–,–,–,–,–,–,–
Cc1cc(NC(=O)NCc2ccc(N3C(N)=NC(N)=NC3(C)C)cc2)ccc1S(=O)(=O)F,> 100,> 100,> 100,> 43.5,> 100,> 100,> 100,> 100,> 100,> 100,0.37,0.665,4.29,0.502,0.824,12.8,> 61.2,0.484,0.815,0.388
COC(=O)C1=NC(=S)NC(c2ccccc2)C1c1nc2ccccc2o1 (centres undefined),> 50,> 50,> 50,> 50,> 50,> 50,> 50,> 50,> 50,> 50,–,–,–,–,–,–,–,–,–,–
O=c1cc(-c2ccccc2)oc2ccc(Cl)cc12,> 100,> 80.6,> 100,> 46.4,> 80.1,> 85.8,> 100,> 96.2,> 100,> 100,–,–,–,–,–,–,–,–,–,–
CCCCCCCCCCCCCCCCCc1nc(Cl)nc(Cl)c1Cl,> 100,> 100,> 100,> 100,> 100,> 100,34.6,> 100,> 100,> 100,–,–,–,–,–,–,–,–,–,–
CC(=O)c1cc2c(N)c(C(=O)Nc3cccc4ccccc34)sc2nc1C,> 50,> 50,> 50,> 50,> 50,27.4,> 50,> 50,> 50,> 50,1.74,1.89,2.14,1.21,2.58,1.67,21.6,1.23,2.02,2.92
COc1cccc(/C=C2\N=C(c3ccccc3)OC2=O)c1,> 100,> 100,> 100,65.2,66.8,> 100,> 100,> 100,58.8,> 100,–,–,–,–,–,–,–,–,–,–
CCn1c(-c2nonc2N)nc2ccccc21,> 25,> 25,> 25,> 25,> 25,> 25,> 25,> 25,> 25,> 25,> 25,> 25,> 25,> 25,> 25,> 25,> 14.9,> 25,> 25,> 25
Clc1ccc2c(NCCNc3nc(N4CCOCC4)nc4ccccc34)ccnc2c1,3.56,8.16,17.8,2.03,3.45,5.98,3.57,13.1,11.7,10.2,1.89,2.66,4.08,0.313,1.8,2.25,1.68,0.892,1.67,2.88
CC1(C)N=C(N)N=C(N)N1c1ccc(CCCC(=O)Nc2ccc(S(=O)(=O)F)cc2)cc1,> 100,> 100,> 100,> 100,> 100,> 100,> 100,> 100,> 100,> 100,2.9,3.54,8.59,1.53,6.03,40.9,63.1,2.13,4.13,0.57
CCN(CC)c1ccc(/C=N/NC(=O)Cc2ccc(Nc3ccnc(C(F)(F)F)c3)cc2)c(O)c1,> 68.2,> 100,> 100,> 19.9,3.8,> 100,> 23.5,> 100,> 100,> 22,0.638,0.826,1.34,0.285,0.413,0.566,0.699,0.49,0.256,0.472
O=c1c(I)c[nH]cc1I,> 100,> 100,> 100,> 100,> 100,> 100,> 100,> 100,> 100,> 100,> 100,> 100,> 100,> 100,> 100,> 100,> 100,> 100,> 100,98.3
O=[N+]([O-])c1cccc(/C=N/Nc2ccc3ccccc3n2)c1O,20.5,32.9,12.1,21.4,12.7,8.9,9.98,> 100,–,> 42.7,–,–,–,–,–,–,–,–,–,–
C=CCC(N[C@@H](CO)c1ccccc1)c1ccc2ccccc2n1 (some centres undefined),> 100,> 100,> 100,65.5,> 100,> 100,> 100,> 100,> 100,> 100,> 100,> 100,> 100,17.2,> 100,> 100,> 100,36.2,46.1,29.9
CC[C@H](C)[C@H](NC(=O)[C@H]1CCCCN1C)C(=O)N(C)[C@H](CCc1nc(C(=O)N[C@@H](Cc2ccccc2)C[C@H](C)C(=O)O)cs1)C(C)C,> 25,> 25,> 25,> 25,> 25,> 25,> 25,> 25,> 25,> 25,0.123,0.115,0.565,0.0166,0.123,0.208,8.83,0.0585,0.0857,0.223
Cn1c(=O)c(-c2ccccc2Cl)cc2cnc(NC3CCOCC3)nc21,> 25,> 25,> 25,> 25,> 25,> 25,> 25,> 25,> 25,> 25,7.02,21.1,18.3,8.3,5.49,> 25,12.3,9.36,14.8,9.42
COc1ccc2nc3ccccc3c(NCCNCCO)c2c1,4.33,3.37,3.53,1.33,3.75,3.99,3.38,4.33,6.78,3.06,0.378,0.455,0.762,0.214,0.404,0.604,0.947,0.356,0.597,0.54
CC(C)(Oc1ccc(-c2cccc3ccccc23)cc1)C(=O)O,> 100,> 100,> 100,> 100,–,> 100,> 100,> 100,> 100,> 100,–,–,–,–,–,–,–,–,–,–
O=C(Nc1ccn(C2CC(O)C(COC(c3ccccc3)(c3ccccc3)c3ccccc3)O2)c(=O)n1)c1ccccc1 (centres undefined),3.22,17.9,3.34,5.34,–,18.8,35.4,7.3,6.2,6.12,–,–,–,–,–,–,–,–,–,–
COc1ccc(/C=C/C(=N\NC(=O)c2ccccc2)c2sc(Nc3ccc([N+](=O)[O-])cc3)nc2C)cc1OC,> 100,47.5,–,> 100,15.9,49.9,44.7,> 100,> 100,–,–,–,–,–,–,–,–,–,–,–
CC(C)c1ccc(O)c(Cc2cc(C(C)C)cc(Cc3cc(C(C)C)ccc3O)c2O)c1,4.28,3.74,3.15,4.45,–,3.26,2.93,4.78,6.91,6.54,–,–,–,–,–,–,–,–,–,–
[Br][Pb]([c]1ccccc1)([c]1ccccc1)[c]1ccccc1,0.508,1.21,0.418,> 100,0.299,0.505,0.381,–,> 100,–,0.239,0.356,0.174,0.103,0.132,0.218,0.173,0.139,0.202,–
O=C1C(Cl)=C(Nc2ccc(S(=O)(=O)c3ccc(NC4=C(Cl)C(=O)c5ccccc5C4=O)cc3)cc2)C(=O)c2ccccc21,5.02,5.38,3.63,7.19,3.1,6.52,18.6,5.24,> 100,–,2,2.17,1.81,1.27,1.49,2.14,3.1,1.63,1.9,–
